Assay results as given in patent US9914710B2, “Bicyclic arylcarboxylic acid amides and their use as herbicides” (BAYER CROPSCIENCE AKTIENGESELLSCHAFT, priority 2014, dated 2018).

Experiments:
Assay in all cases: Post-emergence herbicidal action against harmful plants
Type in all cases: in vivo
Settings in all cases: one-leaf stage, application rate 80 g/ha, assessed visually after about 3 weeks vs untreated controls
Stellaria media = test system: Stellaria media
Description: (§1) Seeds of monocotyledonous and dicotyledonous weed and crop plants are laid out in sandy loam in wood-fiber pots, covered with soil and cultivated in a greenhouse under good growth conditions. 2 to 3 weeks after sowing, the test plants are treated at the one-leaf stage. The compounds of the invention, formulated in the form of wettable powders (WP) or as emulsion concentrates (EC), are then sprayed onto the green parts of the plants in the form of an aqueous suspension or emulsion at a water application rate equating to 600 to 800 I/ha, with addition of 0.2% wetting agent. After the test plants have been left to stand in the greenhouse under optimal growth conditions for about 3 weeks, the action of the preparations is assessed visually in comparison to untreated controls (herbicidal action in percent (%): 100% activity=the plants have died, 0% activity=like control plants). For example, compounds no. 1-18, 1-19, 1-20, 1-21, 1-23, 1-25, 1-26, 1-27, 1-30, 1-32, 1-51, 1-52, 1-53, 1-63, 1-65, 1-69, 1-70, 1-75, 1-76, 1-77, 1-78, 1-79, 1-80, 1-84, 2-18, 2-20 and 4-18 at an application rate of 80 g/ha each have 100% efficacy against Stellaria media, Veronica persica and Viola tricolor.

Veronica persica = test system: Veronica persica
Description: as §1

Viola tricolor = test system: Viola tricolor
Description: as §1

Cn1nnnc1NC(=O)c1cc2c(c([S+](C)[O-])c1Cl)CCC2 (racemic) [1-19]
100%: efficacy (herbicidal action in percent) against Stellaria media (Stellaria media) | efficacy (herbicidal action in percent) against Veronica persica (Veronica persica) | efficacy (herbicidal action in percent) against Viola tricolor (Viola tricolor)

CCn1nnnc1NC(=O)c1cc2c(c([S+](C)[O-])c1Cl)CCC2 (racemic) [1-25]
100%: efficacy (herbicidal action in percent) against Stellaria media (Stellaria media) | efficacy (herbicidal action in percent) against Veronica persica (Veronica persica) | efficacy (herbicidal action in percent) against Viola tricolor (Viola tricolor)

Cn1nnnc1NC(=O)c1cc2c(c([S+](C)[O-])c1Cl)CCCC2 (racemic) [1-52]
100%: efficacy (herbicidal action in percent) against Stellaria media (Stellaria media) | efficacy (herbicidal action in percent) against Veronica persica (Veronica persica) | efficacy (herbicidal action in percent) against Viola tricolor (Viola tricolor)

Cn1nnnc1NC(=O)c1cc2c(c([S+](C)[O-])c1Cl)CCO2 (racemic) [1-70]
100%: efficacy (herbicidal action in percent) against Stellaria media (Stellaria media) | efficacy (herbicidal action in percent) against Veronica persica (Veronica persica) | efficacy (herbicidal action in percent) against Viola tricolor (Viola tricolor)

Cn1nnnc1NC(=O)c1cc2c(c([S+](C)[O-])c1Br)CCC2 (racemic) [1-76]
100%: efficacy (herbicidal action in percent) against Stellaria media (Stellaria media) | efficacy (herbicidal action in percent) against Veronica persica (Veronica persica) | efficacy (herbicidal action in percent) against Viola tricolor (Viola tricolor)

CC[S+]([O-])c1c(Br)c(C(=O)Nc2nnnn2C)cc2c1CCC2 (racemic) [1-79]
100%: efficacy (herbicidal action in percent) against Stellaria media (Stellaria media) | efficacy (herbicidal action in percent) against Veronica persica (Veronica persica) | efficacy (herbicidal action in percent) against Viola tricolor (Viola tricolor)

CSc1c(Cl)c(C(=O)Nc2nnnn2C)cc2c1CCC2 [1-18]
100%: efficacy (herbicidal action in percent) against Stellaria media (Stellaria media) | efficacy (herbicidal action in percent) against Veronica persica (Veronica persica) | efficacy (herbicidal action in percent) against Viola tricolor (Viola tricolor)

Cn1nnnc1NC(=O)c1cc2c(c(S(C)(=O)=O)c1Cl)CCC2 [1-20]
100%: efficacy (herbicidal action in percent) against Stellaria media (Stellaria media) | efficacy (herbicidal action in percent) against Veronica persica (Veronica persica) | efficacy (herbicidal action in percent) against Viola tricolor (Viola tricolor)

CCSc1c(Cl)c(C(=O)Nc2nnnn2C)cc2c1CCC2 [1-21]
100%: efficacy (herbicidal action in percent) against Stellaria media (Stellaria media) | efficacy (herbicidal action in percent) against Veronica persica (Veronica persica) | efficacy (herbicidal action in percent) against Viola tricolor (Viola tricolor)

CCS(=O)(=O)c1c(Cl)c(C(=O)Nc2nnnn2C)cc2c1CCC2 [1-23]
100%: efficacy (herbicidal action in percent) against Stellaria media (Stellaria media) | efficacy (herbicidal action in percent) against Veronica persica (Veronica persica) | efficacy (herbicidal action in percent) against Viola tricolor (Viola tricolor)

CCn1nnnc1NC(=O)c1cc2c(c(S(C)(=O)=O)c1Cl)CCC2 [1-26]
100%: efficacy (herbicidal action in percent) against Stellaria media (Stellaria media) | efficacy (herbicidal action in percent) against Veronica persica (Veronica persica) | efficacy (herbicidal action in percent) against Viola tricolor (Viola tricolor)

CCSc1c(Cl)c(C(=O)Nc2nnnn2CC)cc2c1CCC2 [1-27]
100%: efficacy (herbicidal action in percent) against Stellaria media (Stellaria media) | efficacy (herbicidal action in percent) against Veronica persica (Veronica persica) | efficacy (herbicidal action in percent) against Viola tricolor (Viola tricolor)

CSc1c(Cl)c(C(=O)Nc2nnnn2C)cc2c1C(=O)CC2 [1-30]
100%: efficacy (herbicidal action in percent) against Stellaria media (Stellaria media) | efficacy (herbicidal action in percent) against Veronica persica (Veronica persica) | efficacy (herbicidal action in percent) against Viola tricolor (Viola tricolor)

Cn1nnnc1NC(=O)c1cc2c(c(S(C)(=O)=O)c1Cl)C(=O)CC2 [1-32]
100%: efficacy (herbicidal action in percent) against Stellaria media (Stellaria media) | efficacy (herbicidal action in percent) against Veronica persica (Veronica persica) | efficacy (herbicidal action in percent) against Viola tricolor (Viola tricolor)

CSc1c(Cl)c(C(=O)Nc2nnnn2C)cc2c1CCCC2 [1-51, N-(1-methyltetrazol-5-yl)-3-chloro-4-(methylthio)-5,6,7,8-tetrahydronaphthalene-2-carboxamide]
100%: efficacy (herbicidal action in percent) against Stellaria media (Stellaria media) | efficacy (herbicidal action in percent) against Veronica persica (Veronica persica) | efficacy (herbicidal action in percent) against Viola tricolor (Viola tricolor)

Cn1nnnc1NC(=O)c1cc2c(c(S(C)(=O)=O)c1Cl)CCCC2 [1-53]
100%: efficacy (herbicidal action in percent) against Stellaria media (Stellaria media) | efficacy (herbicidal action in percent) against Veronica persica (Veronica persica) | efficacy (herbicidal action in percent) against Viola tricolor (Viola tricolor)

CSc1c(Cl)c(C(=O)Nc2nnnn2C)cc2c1OCC2 [1-63]
100%: efficacy (herbicidal action in percent) against Stellaria media (Stellaria media) | efficacy (herbicidal action in percent) against Veronica persica (Veronica persica) | efficacy (herbicidal action in percent) against Viola tricolor (Viola tricolor)

Cn1nnnc1NC(=O)c1cc2c(c(S(C)(=O)=O)c1Cl)OCC2 [1-65]
100%: efficacy (herbicidal action in percent) against Stellaria media (Stellaria media) | efficacy (herbicidal action in percent) against Veronica persica (Veronica persica) | efficacy (herbicidal action in percent) against Viola tricolor (Viola tricolor)

CSc1c(Cl)c(C(=O)Nc2nnnn2C)cc2c1CCO2 [1-69]
100%: efficacy (herbicidal action in percent) against Stellaria media (Stellaria media) | efficacy (herbicidal action in percent) against Veronica persica (Veronica persica) | efficacy (herbicidal action in percent) against Viola tricolor (Viola tricolor)

CSc1c(Br)c(C(=O)Nc2nnnn2C)cc2c1CCC2 [1-75]
100%: efficacy (herbicidal action in percent) against Stellaria media (Stellaria media) | efficacy (herbicidal action in percent) against Veronica persica (Veronica persica) | efficacy (herbicidal action in percent) against Viola tricolor (Viola tricolor)

Cn1nnnc1NC(=O)c1cc2c(c(S(C)(=O)=O)c1Br)CCC2 [1-77]
100%: efficacy (herbicidal action in percent) against Stellaria media (Stellaria media) | efficacy (herbicidal action in percent) against Veronica persica (Veronica persica) | efficacy (herbicidal action in percent) against Viola tricolor (Viola tricolor)

CCSc1c(Br)c(C(=O)Nc2nnnn2C)cc2c1CCC2 [1-78]
100%: efficacy (herbicidal action in percent) against Stellaria media (Stellaria media) | efficacy (herbicidal action in percent) against Veronica persica (Veronica persica) | efficacy (herbicidal action in percent) against Viola tricolor (Viola tricolor)

CCS(=O)(=O)c1c(Br)c(C(=O)Nc2nnnn2C)cc2c1CCC2 [1-80]
100%: efficacy (herbicidal action in percent) against Stellaria media (Stellaria media) | efficacy (herbicidal action in percent) against Veronica persica (Veronica persica) | efficacy (herbicidal action in percent) against Viola tricolor (Viola tricolor)

CCSc1c(Br)c(C(=O)Nc2nnnn2CC)cc2c1CCC2 [1-84]
100%: efficacy (herbicidal action in percent) against Stellaria media (Stellaria media) | efficacy (herbicidal action in percent) against Veronica persica (Veronica persica) | efficacy (herbicidal action in percent) against Viola tricolor (Viola tricolor)

CSc1c(Cl)c(C(=O)Nc2ncnn2C)cc2c1CCC2 [2-18]
100%: efficacy (herbicidal action in percent) against Stellaria media (Stellaria media) | efficacy (herbicidal action in percent) against Veronica persica (Veronica persica) | efficacy (herbicidal action in percent) against Viola tricolor (Viola tricolor)

Cn1ncnc1NC(=O)c1cc2c(c(S(C)(=O)=O)c1Cl)CCC2 [2-20]
100%: efficacy (herbicidal action in percent) against Stellaria media (Stellaria media) | efficacy (herbicidal action in percent) against Veronica persica (Veronica persica) | efficacy (herbicidal action in percent) against Viola tricolor (Viola tricolor)

CSc1c(Cl)c(C(=O)Nc2nnc(C)o2)cc2c1CCC2 [4-18]
100%: efficacy (herbicidal action in percent) against Stellaria media (Stellaria media) | efficacy (herbicidal action in percent) against Veronica persica (Veronica persica) | efficacy (herbicidal action in percent) against Viola tricolor (Viola tricolor)
